This is an account of results in patent publication US20170247409A1, “ABIETANE-TYPE DITERPENOIDS” (UNIVERSITY OF HELSINKI, priority 2014, published 2017).

What is called IC50 is the concentration that gives 50% inhibition. A word on the inhibition: it is the relative decrease from the control value, in per cent.

Data set [1] relates to HL cells. The experiment in a line: Biocompatibility index (LC50 in HL cells / concentration causing 3-log reduction of planktonic bacteria). It is filed as cell-based, human. To be noted: ratio LC50 (HL cells) / concentration causing 3-log reduction in planktonic bacterial burden. Here is the method:
Additionally, the biocompatibility index (BI) was calculated for compound 22, to assess the overall impact of its antimicrobial activity, using an adaptation of the equation described for antiseptics by Muller and Kramer, 2008. BI, as originally defined by these authors, is a dimensionless parameter resulting from the ratio of the in vitro cytotoxicity values (in this case, half-lethal concentrations, LC50) to the concentration of the compound causing a 3-log reduction in the viable counts of suspended bacteria. Compounds with BI<1 are deemed as less promising, due to their potential toxic effects. Thus BI is a very useful tool for the quick exclusion of undesired toxic scaffolds or weak hits in early stage of development of anti-biofilm molecules. For the determination of the BI, acute cytotoxicity of compound 22 was measured in the same cell line described earlier (HL cells), using the resazurin assay as in Karlsson et al, 2012. The ratio of the half lethal concentration (LC50) and the concentration causing 3-log reduction in the planktonic bacterial burden was calculated (both expressed in […]), as below:
The BI value of compound 22 was clearly higher than 1, which is indicative of an adequate combination of an effective anti-biofilm activity with a low cytotoxicity. It is thus expected that toxic effects can be minimized in the host organisms exposed to compound 22.

In data set [2] the test system is S. aureus ATCC 25923 biofilms. The experiment in a line: ATP release from biofilms, BacTiter-Glo bioluminescent assay. It is filed as cell-based, Staphylococcus aureus. To be noted: 100 μM; 1 h exposure (FIG. 2A). An excerpt:
(§1) A: quantification of ATP release from the S. aureus ATCC 25923 biofilms using the BacTiter-Glo bioluminescent assay. B: quantification of membrane depolarization in treated biofilms by the potential-sensitive DiABC(4)3 probe; this probe can only enter depolarized cells, where it experienced an enhanced fluorescence signal upon binding to intracellular proteins. For statistical comparisons between the treated and untreated samples, an unpaired t-test with Welch's correction was used, using GraphPad Prism (v 5.0 for Mac OS X).
(§2) ATP release from the biofilms after 1 h exposure to compounds 22 and 25 at 100 μM was quantified on the culture media, using the BacTiter-Glo bioluminescent assay. […] ATP release can be often associated to membrane depolarization events. Here, such events were followed by the increase in fluorescence emission of the DiBAC4(3) probe, as in Okuda et al. (2013).

Data set [3] has as its system S. aureus ATCC 25923 biofilms. As to the kind of experiment: Anti-biofilm viability assay with redox dye, pre- and post-exposure, S. aureus ATCC 25923 biofilms. In kind it is cell-based, Staphylococcus aureus. To be noted: for IC50 / inhibition at 400 µM: S. aureus ATCC 25923; for inhibition at 400 µM: ATCC25923; for reduction of the viable biofilm cells: time-course on existing biofilms, within the first hour (FIG. 1).

Data set [4] deals with S. epidermidis ATCC 12228. The experiment in a line: Anti-biofilm activity against S. epidermidis ATCC 12228. To be noted: tested at IC50 conc. measured against S. aureus ATCC 25923. In kind it is cell-based, Staphylococcus epidermidis. As to the method: (§3) Four of the compounds were also tested against gram-negative E. coli biofilms as well as other Staphylococcal strains, at the corresponding IC50 values measured against S. aureus ATCC 25923 (Table 4). […] Nonetheless, all the compounds presented below were found active against S. epidermidis (ATCC 12228 and ATCC 35984) strains (Table 3).

In a further data set the test system is E. coli XL1 blue. As to the kind of experiment: Anti-biofilm activity against E. coli XL1 blue biofilms. It is filed as cell-based, Escherichia coli. To be noted: tested at IC50 conc. measured against S. aureus ATCC 25923. As to the method:
as §3

The next data set deals with single-cell bacteria. The experiment in a line: Antibacterial activity (MIC) against single-cell (planktonic) bacteria. In kind it is cell-based. To be noted: Staphylococcus aureus, in the absence of biofilms, strain not stated. From the text: We selected six of the active compounds in the post-exposure assays namely, compounds 20, 21, 22, 25, 31 and 32 for the follow-up studies. […] In this mode of the assay, the interaction of the compounds occurs initially with single-cell bacteria (that is, a planktonic solution) before biofilms are formed. Therefore, we tested additionally if the compounds could exert antibacterial activity against single-cell bacteria, in the absence of biofilms. Based solely on conventional MIC and MBC values, antibacterial activities against single-cell bacteria were also high for the derivatives. […] The antibacterial activity order 22>21>25>31>20>32 correlated very well with the measured activity in preventing biofilm formation.

Data set [5] has as its system S. aureus ATCC 25923 biofilms. As to the kind of experiment: Viable plate counts and Log Reduction of S. aureus ATCC 25923 biofilms. To be noted: 400 μM, viable plate counts. It is filed as cell-based, Staphylococcus aureus. As to the method:
The viability of S. aureus (ATCC 25923) biofilms left upon exposure to compounds 20, 21, 22 and 25 was determined using viable plate counts and calculating the Log Reduction (Log R) value. This procedure involves scrapping the biofilms off the substrate, disaggregating them by sonication and plating the resulting suspension in agar. The method is highly laborious but it is the gold standard for the quantification of anti-biofilm efficacy (Pitts et al. 2003). […] Of note, a log R value of 2 represents a reduction of 99% of the viable cells in the biofilms, and typically, a log R of 3 is considered a relevant indicator of the compound efficacy as an anti-biofilm agent.

In a further data set the test system is S. aureus Newman. The experiment in a line: Anti-biofilm potency against S. aureus Newman biofilms. In kind it is cell-based, Staphylococcus aureus. As to conditions: Staphylococcus aureus, S. aureus Newman. From the text:
In fact, only 2-3 fold-higher concentrations of the compounds were needed to kill existing biofilms, in comparison to inhibiting bacterial colonization. […] Anti-biofilm potencies were all in the micromolar range and they were particularly significant for compound 22. […] The activity was also confirmed against S. aureus Newman strain. Potency values calculated for the S. aureus Newman (Table 3) were very similar to the values registered for S. aureus ATCC 25923.

For data set [6], the system named is S. epidermidis ATCC 35984. As to the kind of experiment: Anti-biofilm activity against S. epidermidis ATCC 35984. In kind it is cell-based, Staphylococcus epidermidis. To be noted: tested at IC50 conc. measured against S. aureus ATCC 25923. Here is the method:
as §3

Data set [7] relates to S. aureus ATCC 25923 biofilms. The experiment in a line: Membrane depolarization in biofilms, DiBAC4(3) probe. In kind it is cell-based, Staphylococcus aureus. As to conditions: 1 h exposure to the biofilms (FIG. 2B).
Excerpt: as §1, §2

Data set [8] concerns HL cells. As to the kind of experiment: Tolerability of mammalian cells, resazurin viability assay. To be noted: 24 hours exposure, HL cells. It is filed as cell-based, human. As to the method:
Viability values were measured in acute conditions (24 hours exposure) using the resazurin assay as in Karlsson et al, 2012 (Eur J Pharm Sci. 2012 Aug 30;47(1):190-205). […] The least tolerated molecule was 25, as only 23% (±5.9) of cells remained viable upon exposure to 100 μM. However, concentrations up to 30 μM caused no cytotoxicity (90.2% of viable cells, ±0.5).
For orientation: Resazurin is reduced to fluorescent resorufin, in cell work by metabolically active cells.

Another data set relates to S. aureus biofilm. As to conditions: Fallarero et al, 2013; cited from earlier work.
The mark [9] stands for this setting: Staphylococcus aureus, ATCC25923, 50% inhibition of biofilm viability, read-out: Potency, IC50 Prior-to-biofilm formation.
Where [10] appears, read: Staphylococcus aureus, ATCC25923, 50% inhibition of biofilm viability, value in parentheses, read-out: Potency, IC50 Prior-to-biofilm formation.
The mark [11] stands for this setting: Staphylococcus aureus, ATCC25923, 24 h, measured 24 hours after adding to existing biofilms, value in parentheses, read-out: Potency, IC50 Post-biofilm formation.
[12] abbreviates: Staphylococcus aureus, post-exposure, read-out: % Inhibition 400 μM POST.
The mark [13] stands for this setting: Staphylococcus aureus, pre-exposure, read-out: % Inhibition 400 μM PRE.
[14] abbreviates: read-out: Potency, IC50 Post-biofilm formation.
[15] abbreviates: read-out: Potency, IC50 Prior-to-biofilm formation.
The mark [16] stands for this setting: value in parentheses, read-out: Potency, IC50 Post-biofilm formation.
The mark [17] stands for this setting: value in parentheses, read-out: Potency, IC50 Prior-to-biofilm formation.

Values after ≈ are worked out from the molar mass of the structure shown. Read-outs that look alike come from different tables or passages of the source. Some results are limits rather than exact numbers.

As for `CC(C)c1ccc2c(c1)CC[C@H]1[C@](C)(C(=O)N[C@@H](CC3CCCCC3)C(=O)O)CCC[C@]21C` [Compound 22, N-(Abiet-8,11,13-trien-18-oyl) Cyclohexyl-L-alanine], the “biocompatibility index (BI)” value in the data set with HL cells [1] is given as “higher than 1”. Also, the “ATP release from the biofilms” value in data set [2] is recorded as “highly significant ATP leakage”. For the same compound, the IC50 in data set [3] (setting [9]) turned out to be 9.4 µM; in [3] (setting [10]) it was 4.2 µg/mL; in [3] (setting [11]) it was 12.7 µg/mL; with S. aureus Newman (setting [14]) it was 48.2 µM; in the data set on S. aureus Newman (setting [15]) it was 7.9 µM; in the data set with S. aureus Newman (setting [16]), 21.9 µg/mL. Further, the IC50 in the data set on S. aureus Newman (setting [17]) turned out to be 3.6 µg/mL. The inhibition at 400 µM is 99.6% in data set [3] (setting [12]) and 100% in [3] (setting [13]). Besides, the “reduction of the viable biofilm cells” value in data set [3] is given as ~50%. The “Inhibition percentage (±SD) Post-biofilm formation” value in [4] is on record as 4.4 (±5.8) %; with E. coli XL1 blue, 14.2 (±13.1) %; in [6] it was 1.9 (±5.7) %. The “Inhibition percentage (±SD) Prior-to-biofilm formation” value in data set [4] is given as 42.3 (±9.5) %; in the data set with E. coli XL1 blue it was 5.2 (±11.3) %; in data set [6] it was 48.8 (±4.8) %. The compound also displayed an MIC against single-cell bacteria of 6.8 µg/mL (≈ 15 µM). Besides, the “Log Reduction (average ±SD)” value in data set [5] is listed as 2.3 (±0.1). Besides, the membrane depolarization entry in [7] is recorded as “caused membrane depolarization”.

Consider `CC(C)c1ccc2c(c1)CC[C@H]1[C@](C)(C(=O)N[C@H](Cc3c[nH]c4ccccc34)C(=O)O)CCC[C@]21C` [Compound 25, N-(Abiet-8,11,13-trien-18-oyl) D-tryptophan], for which the “ATP release from the biofilms” value in data set [2] was “highly significant ATP leakage”. The 50% inhibitory concentration (IC50) in [3] (setting [9]) is 33.2 µM; in [3] (setting [10]) it was 16.2 µg/mL; in data set [3] (Staphylococcus aureus, ATCC25923, 24 h, measured 24 hours after adding to existing biofilms, read-out: Potency, IC50 Post-biofilm formation), < 100 µM; in data set [3] (setting [11]) it was 41.9 µg/mL; in data set [3] (measured 24 hours after adding to existing biofilms, read-out: Potency, IC50 Post-biofilm formation), 86.1 µM; with S. aureus Newman (setting [14]), 71.7 µM. For the same compound, the IC50 amounted to 20.9 µM in the data set with S. aureus Newman (setting [15]), 34.9 µg/mL with S. aureus Newman (setting [16]) and 10.2 µg/mL with S. aureus Newman (setting [17]). The inhibition at 400 µM in [3] (setting [12]) and in data set [3] (setting [13]) was 102% in each case. The “reduction of the viable biofilm cells” value in data set [3] was ~50%. For the same compound, the figures for the “Inhibition percentage (±SD) Post-biofilm formation” value (in [4]; in the data set on E. coli XL1 blue; in [6]) were 48.8 (±10.3) %, 6.7 (±7.2) % and 38.0 (±9.3) %, respectively. Also, the “Inhibition percentage (±SD) Prior-to-biofilm formation” value in data set [4] is given as 70.3 (±5.6) %; with E. coli XL1 blue, 8.7 (±5.6) %; in [6] it was 66.9 (±0.9) %. The figures for the viable cells in the data set with HL cells [8] (100 μM) and in the data set on HL cells [8] (concentrations up to 30 μM) were 23% and 90.2%, respectively. Besides, in the data set on single-cell bacteria, the MIC was 29.3 µg/mL (≈ 60.2 µM). In addition, the “Log Reduction (average ±SD)” value in data set [5] was 6.2 (±0.4). The membrane depolarization result in data set [7] was “caused membrane depolarization”.

Turning to nordehydroabietylamine, the “prevention of S. aureus biofilm formation” value with S. aureus biofilm is given as “low micromolar range”.
